# Measurements published in patent publication US20120328526A1, “Modulation of Nad+ Activity in Neuropathophysiological Conditions and Uses Thereof” (University of Maryland, Baltimore, priority 2011, published 2012).
# “Also recorded” adds a separate entry of the source.
# Key:
# [1] = molecular target: T1, CD38 NAD^+ glycohydrolase (Mus musculus, UniProt P56528); assay: NAD+ glycohydrolase activity (1-etheno-NAD hydrolysis) in brain region homogenates; type: biochemical; settings: NMN 1 mM; post-ischemic brain subregion supernatant
# T1 construct: The individual brain regions were homogenized and centrifuged at low speed to sediment the unbroken cells and the nuclear fraction; from tissue; host or cells: mouse (C57BL/6) brain regions (cortex, striatum, hippocampal CA1, CA3-DG), low-speed supernatant of homogenate
# T1 sequence (P56528 1-304): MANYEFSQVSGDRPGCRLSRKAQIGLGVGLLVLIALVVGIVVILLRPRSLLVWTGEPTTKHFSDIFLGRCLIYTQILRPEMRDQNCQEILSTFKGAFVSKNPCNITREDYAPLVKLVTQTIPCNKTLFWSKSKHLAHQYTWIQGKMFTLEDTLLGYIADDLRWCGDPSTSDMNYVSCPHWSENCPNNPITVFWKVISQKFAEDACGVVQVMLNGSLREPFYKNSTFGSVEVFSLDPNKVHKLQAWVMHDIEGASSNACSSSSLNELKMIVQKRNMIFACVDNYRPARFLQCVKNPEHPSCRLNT
# Method: FIGS. 3A-3B show the effect of forebrain ischemia and nicotinamide mononucleotide administration on tissue NAD(H) levels. Mice were subjected to 10 min transient forebrain ischemia and allowed to recover for 24 h. After decapitation their brains were removed, the designated regions dissected and frozen in liquid nitrogen. One group of animals received nicotinamide mononucleotide at 1 hour of recovery. The NAD content was determined following perchloric acid extraction and utilized a coupled fluorometric cycling enzymatic assay (FIG. 3A). There is significant loss of NAD^+ in striatum, CA1, and DG regions. *p<0.05. […] Black: sham; white: ischemia; gray: NMN treatment. FIG. 3B: Effect of ischemia on CD38 activity. Brains of sham operated animals or animals subjected to 10 min of forebrain ischemia and 24 h of recovery were used for dissection of designated brain regions and homogenized. The CD38 enzyme activity was determined using 1-etheno-NAD that, when hydrolyzed by CD38, generates a fluorescent product. The rate of fluorescence increase corresponds to the CD38 enzyme activity. […]
# Since nicotinamide mononucleotide is inhibiting the CD38 NAD^+ glycohydrolase activity, the activity of CD38 in post-ischemic tissue was assessed. The NAD^+ glycohydrolase activity was measured by monitoring the enhancement in fluorescence emission caused by the hydrolysis of 1-etheno-NAD (eNAD) (9). […]
# CD38 = molecular target: T2, CD38 (Mus musculus, UniProt P56528); assay: 1-etheno-NAD hydrolysis by isolated brain mitochondria; type: biochemical; settings: NMN 1 mM
# T2 construct: Addition of isolated brain mitochondria into medium containing 1-etheno-NAD (eNAD) results in generation of fluorescent product; from tissue; host or cells: isolated brain mitochondria
# T2 sequence (P56528 1-304): T1 sequence (P56528 1-304)
# Method: Addition of isolated brain mitochondria into medium containing 1-etheno-NAD (eNAD) results in generation of fluorescent product. This NAD catabolism is inhibited by nicotinamide mononucleotide (1 mM). […] In brain tissue of sham-operated animals the CD38 expression is very low. […] This increase is observed particularly in non-neuronal cells that resemble post-ischemic microglia.
# CD38-deficient cells = assay: Oxygen-glucose deprivation (OGD) in CD38-deficient cell cultures; type: cell-based, mouse
# Excerpt: At later recovery periods, tissue NAD(H) decrease since the NAD^+ translocates from mitochondria to the cytosol and is hydrolyzed by the activated NAD^+ glycohydrolases CD38 and PARP1. CD38-dependent overactivation of microglia under diabetic conditions leads to aggravation of ischemic brain damage, astrocytes and neurons prepared from CD38 knockout animals with microglia (9) from wild type or CD38-null animals are co-cultured. The co-cultures are then subjected to OGD and the cell death assessed at 24 h of recovery.
# Exposure of cortical astrocytes to OGD plus ISS for 4 h results in significant (>50%) cell death after 24 h of reoxygenation (24) was determined. When cortical neurons are subjected to the same insult for 1 h, a similar level of cell death (40-50%) was observed. Cells cultured under hyperglycemic conditions (30 mM glucose) are more sensitive to the oxygen-glucose deprivation (OGD) insult. The CD38-deficient cells will have elevated basal levels of NAD(H) since the brain NAD(H) levels in CD38-null mice are several-fold higher when compared to wild type mice (6). The protective effect of CD38 knockout in specific cell types will also depend on the oxygen-glucose deprivation-induced loss of mitochondrial NAD(H) that can promote total cellular NAD(H) depletion. […]
smiles,measurement,setting,value
NC(=O)c1ccc[n+]([C@@H]2O[C@H](COP(=O)([O-])O)[C@@H](O)[C@H]2O)c1 [nicotinamide mononucleotide],eNAD hydrolysis (NAD+ glycohydrolase activity) in brain tissue homogenate,[1],completely inhibited; also recorded: prevents tissue NAD^+ degradation
same,NAD catabolism (eNAD fluorescent product) by isolated brain mitochondria,CD38,inhibited
same,protective effect in CD38-deficient cells compared to PARP-1 inhibitors 3-AB or PJ34,CD38-deficient cells,less efficient protective effect
